Data on eight compounds can be found in ChEMBL document CHEMBL1255522, “Novel amides and esters prodrugs of olmesartan: Synthesis, bioconversion, and pharmacokinetic evaluation” (Bioorg Med Chem Lett, 2010).

This series can be described thus: Stability in Sprague-Dawley rat plasma assessed as compound remaining at 50 mg/ml after 30 mins. The class given is ADME, cell-free. To be noted: read-out: Stability.
In the case of `CCCc1nc(C(C)(C)O)c(C(=O)NCCCCCC[N+](=O)[O-])n1Cc1ccc(-c2ccccc2C2=NNNN2)cc1`, the remaining at 0.5 h amounted to 101%. The result for `CCCc1nc(C(C)(C)O)c(C(=O)NCCCCCCC(=O)O)n1Cc1ccc(-c2ccccc2C2=NNNN2)cc1` reads 97.5%.

For the compound `CCCc1nc(C(C)(C)O)c(C(=O)OCc2c[nH]c(=O)[nH]c2=O)n1Cc1ccc(-c2ccccc2C2=NNNN2)cc1`, the remaining at 0.5 h worked out at 96.3%. The result for `CCCc1nc(C(C)(C)O)c(C(=O)OCCCCCC[N+](=O)[O-])n1Cc1ccc(-c2ccccc2C2=NNNN2)cc1` reads 100%. With `CCCc1nc(C(C)(C)O)c(C(=O)OCCCCCCC(=O)OCC)n1Cc1ccc(-c2ccccc2C2=NNNN2)cc1`, the remaining at 0.5 h amounted to 81.1%. The result for `CCCc1nc(C(C)(C)O)c(C(=O)OCCCCCCC(=O)O)n1Cc1ccc(-c2ccccc2C2=NNNN2)cc1` reads 98.8%; that for `CCCc1nc(C(C)(C)O)c(C(=O)NCCNCCO)n1Cc1ccc(-c2ccccc2C2=NNNN2)cc1`, 98.9%. The result for `CCCCCCCCOC(=O)c1c(C(C)(C)O)nc(CCC)n1Cc1ccc(-c2ccccc2C2=NNNN2)cc1` reads 90.2%.
